In publication PMC10487658, “Identification and Characterization of RK22, a Novel Antimicrobial Peptide from Hirudinaria manillensis against Methicillin Resistant Staphylococcus aureus” (International Journal of Molecular Sciences, 2023):
Where two headings read alike, the source gives them in different places. No end group written: not given here.

Experiments:
[1] = tested on: MRSA-Z; format: in vitro ADME, Staphylococcus aureus
Description: (§1) We determined the stability of RK22 in plasma according to the previously reported method. Briefly, an equal volume of RK22 was mixed with human plasma and diluted to a concentration of 5 mg/mL. The MICs of RK22 against S. aureus ATCC6538 and methicillin-resistant S. aureus MRSA-Z were determined after incubation at 37 °C for different times (0, 2, 4, 6, 8, and 10 h).

[2] = tested on: S. aureus (ATCC6538); format: in vitro ADME, Staphylococcus aureus
Description: as §1

[3] = tested on: mouse red blood cells; assay: Hemolysis assay; format: cell-based; details: up to 400 μg/mL, 37 °C, 1 h, absorbance 540 nm, 1% Triton X-100 = 100%, 3 independent experiments
Description: The hemolysis and cytotoxicity assays were performed according to previous research with some modifications. In the hemolysis assay, mouse blood was collected in anticoagulant tubes, centrifuged (1000× g, 5 min), and washed with normal saline three times to obtain red blood cells. The red blood cells were then resuspended to prepare a 10% red blood cell suspension. The suspension was mixed with an equal volume solution of RK22 (final concentration 0–400 μg/mL), then incubated at 37 °C for 1 h and centrifuged (1000× g, 10 min). After this, 150 μL of the supernatant was transferred to a new 96-well plate, with absorbance then measured at 540 nm. Additionally, 1% Triton X-100 and sterile saline treatment groups accounted for 100% and 0% hemolysis, respectively.
Supplementary Figures and Figure legends
Figure S1. […] After incubation for 60 min at 37°C, cells were centrifuged (3,500 rpm, 5 min) and the absorbance of the supernatant was measured at 540 nm. The value for “zero hemolysis” was determined using sterile saline (negative control, NC), while 100% hemolysis was established using 1% (v/v) Triton X-100 (PC: positive control). Hemolysis of testing sample was calculated as the percentage of Triton X-100-induced hemolysis. […] Cell viability was determined by adding 10 μl CCK8 in to the cells and incubated for 1-4 h. The absorbance at 450 nm of the solution was measured with a microplate reader. […]

[4] = tested on: C57BL/6 mice; format: in vivo, mouse; details: male C57BL/6 mice, 96 h; for survival: n = 8
Description: Male C57BL/6 mice (6–8 weeks of age) were randomly divided into three groups of eight mice per group. Either normal saline or RK22 (20 and 40 mg/kg) was injected intravenously via the tail vein. […] For histopathological analysis, sections of lung, liver, spleen, and kidney were fixed with 4% paraformaldehyde, embedded in paraffin wax, and stained with hematoxylin and eosin (H&E).
Figure S2. In vivo acute toxicity of RK22. Male C57BL/6 mice (6–8 weeks of age, n = 8 /group) were injected intravenously via the tail vein with saline or RK22 (20 and 40 mg/kg). Mice were observed for survival status within 96 h of the injection (A) and blood was collected via retro-orbital bleeding for routine blood analysis (B-E). The sections of lung, liver, spleen and kidney were stained […]
(1 picture or pasted object on this page, not shown here)

[5] = tested on: MRSA-Z (clinically isolated methicillin-resistant S. aureus); assay: microbe, parasite or virus in culture; format: cell-based, Staphylococcus aureus; details: -Z (clinically isolated methicillin-resistant)
Description: (§2) The bacterial strains used in this study included Pseudomonas aeruginosa (P. aeruginosa, ATCC27853), Acinetobacter baumannii (A. baumannii, ATCC19606), Escherichia coli (E. coli, ATCC8739), and S. aureus (ATCC6538, two clinically isolated strains (SA220823 and SA15772)), and three clinically isolated methicillin-resistant strains (MRSA-Z, MRSA11, and MRSA22). All strains were grown in Luria-Bertani (LB) broth.
(§3) The minimum inhibitory concentration (MIC) for all strains was determined using the […] assay based on a previous study with minor modifications. Initially, strains in the exponential phase were diluted to a concentration of 2 × 10^5 CFU/mL using RPMI 1640 medium (Corning, New York, NY, USA). Next, 100 μL of the bacterial suspension was mixed with 100 μL of the sample solution (final concentration 0–200 μg/mL in RPMI 1640 medium) in 96-well plates. The plates were then incubated at 37 °C for 12–16 h. After incubation, the absorbance at 600 nm was measured, and the MIC was determined as the lowest concentration of the test sample in which no bacterial growth was detected in the well.

[6] = tested on: MRSA11 (clinically isolated methicillin-resistant S. aureus); assay: microbe, parasite or virus in culture; format: cell-based, Staphylococcus aureus; details: MRSA11 (clinically isolated methicillin-resistant)
Description: as §2, §3

[7] = tested on: MRSA22 (clinically isolated methicillin-resistant S. aureus); assay: microbe, parasite or virus in culture; format: cell-based, Staphylococcus aureus; details: MRSA22 (clinically isolated methicillin-resistant)
Description: as §2, §3

[8] = tested on: SA15772 (clinically isolated S. aureus); assay: microbe, parasite or virus in culture; format: cell-based, Staphylococcus aureus; details: SA15772 (clinically isolated)
Description: as §2, §3

[9] = tested on: SA220823 (clinically isolated S. aureus); assay: microbe, parasite or virus in culture; format: cell-based, Staphylococcus aureus; details: SA220823 (clinically isolated)
Description: as §2, §3

[10] = tested on: S. aureus (ATCC6538); assay: microbe, parasite or virus in culture; format: cell-based, Staphylococcus aureus
Description: as §2, §3

[11] = tested on: A. baumannii, ATCC19606; format: cell-based, Acinetobacter baumannii; details: RPMI 1640, 2 × 10^5 CFU/mL, 37 °C, 12–16 h, absorbance at 600 nm
Description: as §2, §3

Sequence: RKYKEKKDKSQNKKKKRKCMIL [RK22]
- MIC after incubation in plasma [1]: 6.25 µg/mL
- MIC after incubation in plasma [2]: 6.25 µg/mL
- hemolytic activity [3]: did not exhibit any obvious hemolytic activity
- hemoglobin (HGB) ([4]; 20 and 40 mg/kg iv): did not induce any changes
- histopathological analysis (H&E) of lung, liver, spleen and kidney ([4]; 20 and 40 mg/kg iv): no obvious tissue injury
- platelets ([4]; 20 and 40 mg/kg iv): did not induce any changes
- red blood cells ([4]; 20 and 40 mg/kg iv): did not induce any changes
- white blood cells ([4]; 20 and 40 mg/kg iv): did not induce any changes
- survival ([4]; single dose 20 mg/kg intravenously via the tail vein): did not result in any fatalities
- survival ([4]; single dose 40 mg/kg intravenously via the tail vein): did not result in any fatalities
- MIC [5]: 6.25 µg/mL
- MIC [6]: 6.25 µg/mL
- MIC [7]: 6.25 µg/mL
- MIC [8]: 12.5 µg/mL
- MIC [9]: 12.5 µg/mL
- MIC [10]: 6.25 µg/mL
- MIC [11]: 100 µg/mL
